In the supplement of paper PMC11451515:

Key:
Experiment in all cases: AUC of viability dose-response curve (% viability x log10 dose units); higher = less sensitive
Settings in all cases: 48 h
SEM cells = test system: SEM cells
Method in brief: (§1)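 Viability of medium-adapted leukemia cells was measured by CellTiter-Glo One luminescence after 48 h at 37°C with library compounds in DMSO. Doses were 11 threefold steps from 47 μM to 0.79 nM, in 1536-well plates at 500 or 1000 cells/well. Signals were normalised per plate to DMSO and cell-free wells and fitted with a four-parameter log-logistic model on log10 dose. Area under the curve was integrated by trapezoidal rule, with curves exceeding full viability scaled and failed quality-control curves removed.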

P12-Ichikawa = test system: P12-Ichikawa
Method in brief: as §1

NOMO1 = test system: NOMO1
Method in brief: as §1

[1] = RPMI 5 mM glucose + 10% dialyzed FBS

SMILES	AUC of viability dose-response curve (SEM cells; HPLM + 10% dialyzed FBS)	AUC of viability dose-response curve (SEM cells; RPMI 5 mM glucose + 10% FBS)	AUC of viability dose-response curve (SEM cells; [1])	AUC of viability dose-response curve (P12-Ichikawa; HPLM + 10% dialyzed FBS)	AUC of viability dose-response curve (P12-Ichikawa; RPMI 5 mM glucose + 10% FBS)	AUC of viability dose-response curve (P12-Ichikawa; [1])	AUC of viability dose-response curve (NOMO1; HPLM + 10% dialyzed FBS)	AUC of viability dose-response curve (NOMO1; RPMI 5 mM glucose + 10% FBS)	AUC of viability dose-response curve (NOMO1; [1])
CCCCc1oc2ccccc2c1C(=O)c1cc(I)c(OCCN(CC)CC)c(I)c1	458	465	454	451	448	463	442	450	457
CCCCc1ccc(N[S+](=O)([O-])c2ccc(C)c(C(=O)N3CCN(c4cccc(C)c4C)CC3)c2)cc1	–	–	–	468	468	464	457	435	473
CC(C)C1=N[N](C\2=C1C(=O)N\C(=N2)CC3=CC=C(OCCO)C=C3)C4=C(Cl)C=CC=C4Cl	–	–	–	244	241	239	225	226	222
COc1ccc2c(c1)CC[C@@H](CN(C)CC(=O)O)[C@H]2c1ccccc1	373	362	385	368	369	390	409	407	411
CCCC[N+]1(C)[C@@H]2CC(OC(=O)[C@H](CO)c3ccccc3)C[C@H]1[C@@H]1O[C@@H]12 (some centres undefined)	462	471	475	452	450	460	420	431	450
